In patent US6172112A, “Retinoids and use thereof” (priority 1999, dated 2001):

Tests used:
RARα/RXRα = target: T1, RARα/RXRα (Homo sapiens, UniProt P10276+P19793); assay: cell-based
T1 sequence (P10276 1-462): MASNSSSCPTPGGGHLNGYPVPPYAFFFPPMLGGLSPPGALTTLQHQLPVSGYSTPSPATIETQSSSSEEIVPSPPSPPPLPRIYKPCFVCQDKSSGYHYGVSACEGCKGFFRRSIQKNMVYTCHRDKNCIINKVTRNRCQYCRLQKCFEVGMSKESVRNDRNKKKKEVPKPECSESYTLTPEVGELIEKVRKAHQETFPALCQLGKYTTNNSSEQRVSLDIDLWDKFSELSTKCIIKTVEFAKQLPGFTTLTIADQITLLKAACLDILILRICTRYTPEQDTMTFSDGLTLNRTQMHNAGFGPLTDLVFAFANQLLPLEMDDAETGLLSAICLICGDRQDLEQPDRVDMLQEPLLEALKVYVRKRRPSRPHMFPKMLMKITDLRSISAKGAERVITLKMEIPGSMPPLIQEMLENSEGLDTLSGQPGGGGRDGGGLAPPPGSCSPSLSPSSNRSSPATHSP
T1 sequence (P19793 1-462): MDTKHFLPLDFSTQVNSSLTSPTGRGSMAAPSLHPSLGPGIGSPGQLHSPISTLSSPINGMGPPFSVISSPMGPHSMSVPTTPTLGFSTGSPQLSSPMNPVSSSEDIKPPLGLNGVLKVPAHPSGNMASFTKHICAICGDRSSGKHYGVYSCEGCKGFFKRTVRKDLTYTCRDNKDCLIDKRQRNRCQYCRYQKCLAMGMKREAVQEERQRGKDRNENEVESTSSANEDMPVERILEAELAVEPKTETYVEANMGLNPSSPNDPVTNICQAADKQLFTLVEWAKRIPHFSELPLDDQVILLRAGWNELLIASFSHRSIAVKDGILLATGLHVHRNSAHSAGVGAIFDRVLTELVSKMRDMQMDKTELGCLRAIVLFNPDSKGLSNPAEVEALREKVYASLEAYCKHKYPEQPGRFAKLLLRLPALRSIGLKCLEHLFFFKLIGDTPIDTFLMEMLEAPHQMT
Method: (§1) These assays were performed in CV-1 cells with the RAR or RXR gene and the chloramphenicol acetyltransferase (CAT) reporter gene containing TREpal with a thymidine kinase promoter [(TREpal)2 -tk-CAT]. Twenty-four hours after transfection, cells were treated with a single dose of retinoid and the cell extracts were assayed for b-galactosidase and CAT activity. The antagonistic effects of UAB30 retinoids on the transcription of RAR-α were also determined in CV-1 cells. The methods are nearly identical to those used to perform transcriptional assays. These studies utilized the CAT reporter gene [(TREpal)2 -tk-CAT]. […] After 24 hours, cells were harvested and the transcriptional effects were measured in relative CAT activity, after correction with β-galactosidase activity for transfection efficiency. […] Experiments were performed in triplicate and the data were averaged.

RARβ = target: T2, RARβ (Homo sapiens, UniProt P10826); assay: nuclear receptor radiolabeled competition binding, RARβ
T2 construct: expressed in transfected cells; host or cells: CV-1 cells
T2 sequence (P10826 1-455): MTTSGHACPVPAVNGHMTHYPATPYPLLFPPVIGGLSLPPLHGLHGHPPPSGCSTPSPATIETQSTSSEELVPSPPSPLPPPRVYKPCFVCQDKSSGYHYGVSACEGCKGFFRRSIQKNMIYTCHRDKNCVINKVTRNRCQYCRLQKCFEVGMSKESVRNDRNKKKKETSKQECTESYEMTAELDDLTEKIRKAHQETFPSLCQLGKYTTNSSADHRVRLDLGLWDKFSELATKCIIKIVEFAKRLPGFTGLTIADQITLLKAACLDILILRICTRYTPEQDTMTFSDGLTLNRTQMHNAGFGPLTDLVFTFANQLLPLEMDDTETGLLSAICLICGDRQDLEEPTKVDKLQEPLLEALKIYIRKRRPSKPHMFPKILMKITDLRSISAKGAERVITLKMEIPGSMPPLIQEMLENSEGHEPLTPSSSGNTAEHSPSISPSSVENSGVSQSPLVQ
Method: (§2) For active retinoids, IC50 values were determined by titration with varying concentrations of UAB retinoids.

RXRα [1] = target: T3, RXRα (Homo sapiens, UniProt P19793); assay: RXRα homodimer-mediated transcriptional activation in CV-1 cells; type: cell-based
Method: as §1

RXRα [2] = target: T3, RXRα; assay: nuclear receptor radiolabeled competition binding, RXRα
Method: as §2

HL-60 cells = assay: retinoid induction of differentiation of HL-60 cells (NBT); type: cell-based; settings: Homo sapiens, HL-60, 96 h; 4-day induction of differentiation; read-out: ED50 (nM) HL-60
Method: Human leukemia cell line HL-60 and NB4 were used for measuring the ability of retinoids to induce terminal differentiation. Both cell lines are predominantly promyelocytes and are induced by retinoic acid to mature to cells with many characteristics of mature granulocytes. The induction of this differentiation is the basis for assaying one of the biological activities of retinoic acid analogues. For the differentiation assay, HL-60 or NB4 cells were grown in nutrient medium with fetal bovine serum as detailed by Breitman (15).
The percentage of cells that gained this marker was measured microscopically. The percentage of positive cells was then plotted as a function of the retinoid concentration to determine ED50 and ED30 values used in the formation of isoboles.

[3] = cited from earlier work
mouse skin papilloma = settings: ref (8); cited from earlier work
RARα = target: T4, RARα (Homo sapiens, UniProt P10276); assay: cell-based
T4 sequence (P10276 1-462): T1 sequence (P10276 1-462)
Method: as §1
UAB30 isomers were evaluated in assays which measures their functional activity within cells to induce RARα-, RARβ-, and RARγ-mediated transcriptional activity. CV-1 cells were transiently transfected with DNA plasmid from the appropriate RAR subtype and (TREpal)2 -tk-CAT (9, 19).

NB4 cells = assay: retinoid metabolism in NB4 cells; type: in vitro ADME

CCC1=C(C(C)C)/C(=C/C(C)=C/C=C/C(C)=C/C(=O)O)CCC1 [(all-E)-UAB8]
EC50 (RARα/RXRα): 68 nM
IC50 (RARβ): 6 nM
EC50 (RXRα [1]): > 2000 nM
IC50 (RXRα [2]): > 2000 nM
EC50 (HL-60 cells): > 10000 nM
in vivo toxicity [3]: less toxic than ATRA
ED50 skin antipapilloma assay (mouse skin papilloma): 2.5 nmol
EC50 (RARα): 33 nM
metabolism / metabolic stability (NB4 cells): metabolized at the same rate as ATRA
